Reference: the NIST ThermoML archive (doi:10.1016/j.jct.2012.04.025)
Numbers after ± are expanded uncertainties.

Assay: molar heat capacity at constant pressure
Conditions: 298.15 K; 101.33 kPa; Liquid; High-precision drop calorimeter

| Structure (SMILES) | molar heat capacity at constant pressure |
| --- | --- |
| CCCC[n+]1ccn(C)c1.O=S(=O)([N-]S(=O)(=O)C(F)(F)F)C(F)(F)F | 565.9 ± 5 J/K/mol |
| CCCn1cc[n+](C)c1.O=S(=O)([N-]S(=O)(=O)C(F)(F)F)C(F)(F)F | 534.9 ± 5 J/K/mol |
| CCCCCn1cc[n+](C)c1.O=S(=O)([N-]S(=O)(=O)C(F)(F)F)C(F)(F)F | 595.6 ± 6 J/K/mol |
| CCCCCCCCn1cc[n+](C)c1.O=S(=O)([N-]S(=O)(=O)C(F)(F)F)C(F)(F)F | 690.2 ± 7 J/K/mol |
| CCCCCCCCCCCCn1cc[n+](C)c1.O=S(=O)([N-]S(=O)(=O)C(F)(F)F)C(F)(F)F | 820.2 ± 8 J/K/mol |
| CCn1cc[n+](C)c1.O=S(=O)([N-]S(=O)(=O)C(F)(F)F)C(F)(F)F | 504.8 ± 5 J/K/mol |
| CCCCCCCCCCn1cc[n+](C)c1.O=S(=O)([N-]S(=O)(=O)C(F)(F)F)C(F)(F)F | 754.5 ± 7 J/K/mol |
| CCCCCC[n+]1ccn(C)c1.O=S(=O)([N-]S(=O)(=O)C(F)(F)F)C(F)(F)F | 629.4 ± 6 J/K/mol |
| CCCCCCCn1cc[n+](C)c1.O=S(=O)([N-]S(=O)(=O)C(F)(F)F)C(F)(F)F | 659.2 ± 6 J/K/mol |
